Assay: Stability studies: storage under standard conditions, then XRD analysis
Type: physicochemical
Settings: for XRD after storage (polymorphic form): stored at room temperature, air atmosphere

## COC[C@@H](NC(C)=O)C(=O)NCc1ccccc1 [amorphous lacosamide, (2R)-2-(acetylamino)-3-methoxy-N-(phenylmethyl)propanamide]
Ambient conditions and air atmosphere for at least 250 days, more typically at least 300 days
  stability on storage: substantially stable
Room temperature, normal pressure, air atmosphere for 304 days (Example 63)
  XRD after storage (FIG. 13 vs FIG. 12): retention of amorphous Form

## COC[C@@H](NC(C)=O)C(=O)NCc1ccccc1 [Example 42, (2R)-2-(acetylamino)-3-methoxy-N-(phenylmethyl)propanamide]
Normal pressure, storing time 290 days
  XRD after storage (polymorphic form): Form III

## COC[C@@H](NC(C)=O)C(=O)NCc1ccccc1 [Example 41, (2R)-2-(acetylamino)-3-methoxy-N-(phenylmethyl)propanamide]
Normal pressure, storing time 295 days
  XRD after storage (polymorphic form): Form III

## COC[C@@H](NC(C)=O)C(=O)NCc1ccccc1 [lacosamide Form III, (2R)-2-(acetylamino)-3-methoxy-N-(phenylmethyl)propanamide]
Ambient conditions and air atmosphere for at least 250 days, more typically at least 290 days
  polymorphic stability on storage: substantially no polymorphic interconversion is observed
